Results: patent US20250049036A1 (priority 2021, published 2025)

Legend:
[1] = test system: Phytophthora infestans; test: microbe, parasite or virus in culture; format: cell-based; details: 168 h, read-out: control compared to the untreated check
[2] = test system: Fusarium culmorum; test: Fusarium culmorum test on wheat, preventive, greenhouse; format: in vivo; details: preventive spray on wheat, inoculated one day after treatment, read-out: control (efficacy, disease severity) compared to the untreated check
Procedure: The respective compound was dissolved in 2% dimethyl sulfoxide/acetone and then mixed with water containing an emulsifier to a calibrated spray volume of 30 mL. Each spray solution was poured into a spray bottle for further application.
(§1) To test the preventive activity of a compound, healthy young wheat plants, raised in the greenhouse, were sprayed with the active compound preparation at the stated application rate inside the spray cabinets using hollow cone nozzles. One day after the treatment, the plants were inoculated with a spore suspension containing 2×10^6 Fusarium culmorum inoculum. The inoculated plants were then kept in a greenhouse chamber at 24° C. temperature and 80-90% relative humidity for disease expression.
(§2) A visual assessment of the compound's performance was carried out by rating the disease severity (0 100% scale) on treated plants 3, 7, 10 and 15 days after application. Efficacy (% control) of the compound was calculated by comparing the disease rating in the treatment with the one of the untreated control. The treated plants were also assessed for plant damage by recording symptoms like necrosis, chlorosis and stunting.

[3] = test system: Botrytis cinerea; test: Botrytis cinerea test on tomato, preventive, greenhouse; format: in vivo; details: preventive spray on bean/chili plants (heading: tomato), inoculated one day after treatment, read-out: control (efficacy, disease severity) compared to the untreated check
[4] = test system: Alternaria solani; test: Alternaria solani test in tomato, preventive, greenhouse; format: in vivo; details: preventive spray on tomato, inoculated one day after treatment, read-out: control (efficacy, disease severity) compared to the untreated check
Procedure: The respective compound was dissolved in 2% dimethyl sulfoxide/acetone and then mixed with water containing an emulsifier to the calibrated spray volume of 30 mL. Each spray solution was poured into a spray bottle for further application.
as §1, with “tomato” for “wheat”, “after” for “after the”, “0.24×10^6 Alternaria solani” for “2×10^6 Fusarium culmorum”, “22-24°” for “24°”, “90-95%” for “80-90%”
as §2

[5] = test system: Colletotrichum capsici; test: Colletotrichum capsici (anthracnose) mycelial radial growth on potato dextrose agar; format: cell-based; details: Colletotrichum truncatum, 168 h, 25° C., seven days, read-out: control compared to the untreated check
Outline: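 Compounds in 0.3% DMSO were mixed into potato dextrose agar, and each plate was seeded with a 5 mm mycelial disc from an actively growing culture. Plates were incubated at 25° C and 60% relative humidity for seven days. Radial growth was compared with untreated control.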

[6] = test system: Parastagonospora nodorum; test: Parastagonospora nodorum (PARANO) spore growth inhibition in liquid medium, 96-well microtiter plate, OD 600; format: cell-based; details: spore suspension in PDB liquid medium, 18° C., 5-6 days, OD at 600, read-out: control compared to the untreated check
Outline: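 Read-out is percent growth inhibition from OD at 600 after 5-6 days at 18° C. Compounds, dissolved in DMSO, were diluted in potato dextrose broth and combined in equal volume with a 10^5 spores/ml suspension of PARANO.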

[7] = test system: Venturia Inequalis; test: Venturia inequalis (VENTIN) spore growth inhibition in liquid medium, 96-well microtiter plate, OD 600; format: cell-based; details: spore suspension in PDB liquid medium, 18° C., 15-18 days, OD at 600, read-out: control compared to the untreated check
Procedure: Potato dextrose (PDB) liquid medium containing a VENTIN (10^5 spores/ml) spore suspension was prepared. For the inhibition assay, each test compound was solved in dimethyl sulfoxide. 100 μl of the test compound in media-solution was added to a 96-well microtiter plate, consequently, the same volume (100 μl) of spore suspension was added to the well making the final test concentrations and the treated plate was incubated at 18° C. for 15-18 days. The growth inhibition was evaluated by measuring the OD at 600. Percent inhibition was calculated with the below formula: […]

[8] = test system: Phytophthora infestans; test: whole plant or invertebrate; format: in vivo, Phytophthora infestans on tomato; details: in Solanum lycopersicum, read-out: control (efficacy, disease severity) compared to the untreated check
[9] = test system: Botrytis cinerea; test: Botrytis cinerea (gray mold) mycelial radial growth on potato dextrose agar; format: cell-based; details: 168 h, 22° C., seven days, read-out: control compared to the untreated check
Outline: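 Compounds in 0.3% DMSO were mixed into potato dextrose agar, and plates were seeded with 5 mm mycelial discs from actively growing virulent culture. After seven days at 22 °C and 90% relative humidity, radial growth was measured relative to untreated control.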

[10] = test system: Botrytis cinerea; test: Botrytis cinerea liq. (BOTRCI) spore growth inhibition in liquid medium, 96-well microtiter plate, OD 405 nm; format: cell-based; details: spore suspension in YBA liquid medium, 22° C., 5-6 days, OD at 405 nm, read-out: control compared to the untreated check
Outline: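 Spore suspension of B. cinerea (10^4 spores/ml) in YBA liquid medium mixed 1:1 with compound diluted from DMSO. Incubated at 22° C. for 5-6 days. Growth read as OD 405 nm; percent inhibition derived from treatment, untreated-control and blank readings.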

[11] = test system: Pyricularia oryzae; test: microbe, parasite or virus in culture; format: cell-based; details: 168 h, read-out: control compared to the untreated check
[12] = test system: Phakopsora pachyrhizi; test: Phakopsora pachyrhizi test on soybean, preventive, greenhouse; format: in vivo; details: preventive spray on soybean, inoculated one day after treatment, read-out: control (efficacy, disease severity) compared to the untreated check
Outline: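 Greenhouse-grown young soybean plants were sprayed with compound (2% DMSO/acetone, emulsifier in water) at the stated rate. One day later they were inoculated with 2×10^5 P. pachyrhizi inoculum and held at 22-24 °C, 80-90% relative humidity for disease development.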

COc1nc2c(ccn2C)cc1C(=O)NC(C)(Cc1ccccc1)CC(C)C (stereo not drawn) [Compound 92, N-(2,4-dimethyl-1-phenylpentan-2-yl)-6-methoxy-1-methyl-1H-pyrrolo[2,3-b]pyridine-5-carboxamide]
≥ 70%: inhibition of growth at 300 ppm [1] | pest or weed control at 500 ppm [2] | pest or weed control at 500 ppm [3]

C=C(C)CC(C)(COc1ccc(F)cc1)NC(=O)c1cc2cc[nH]c2nc1C (stereo not drawn) [Compound 128, N-(1-(4-fluorophenoxy)-2,4-dimethylpent-4-en-2-yl)-6-methyl-1H-pyrrolo[2,3-b]pyridine-5-carboxamide]
≥ 70%: pest or weed control at 500 ppm [3] | pest or weed control at 500 ppm [4]

CC(Cc1ccccc1)C(C)(C)NC(=O)c1cnc2c(ccn2C)c1 (stereo not drawn) [Compound 80, N-(2,3-dimethyl-4-phenylbutan-2-yl)-1-methyl-1H-pyrrolo[2,3-b]pyridine-5-carboxamide]
≥ 70%: inhibition of growth at 300 ppm [5] | inhibition of growth at 300 ppm [6] | inhibition of growth at 300 ppm [7] | pest or weed control at 500 ppm [4] | pest or weed control at 500 ppm [8]

CC(C)(NC(=O)c1cnc2ccsc2c1)C(O)c1ccccc1 (stereo not drawn) [Compound 118, N-(1-hydroxy-2-methyl-1-phenylpropan-2-yl)thieno[3,2-b] pyridine-6-carboxamide]
≥ 70%: inhibition of growth at 300 ppm [9] | inhibition of growth at 300 ppm [6] | inhibition of growth at 300 ppm [10] | pest or weed control at 500 ppm [4]

CCC(O)(CC)C(NC(=O)c1cnc2c(ccn2C)c1)c1ccc(F)cc1 (stereo not drawn) [Compound 131, N-(2-ethyl-1-(4-fluorophenyl)-2-hydroxybutyl)-1-methyl-1H-pyrrolo[2,3-b]pyridine-5-carboxamide]
≥ 70%: inhibition of growth at 300 ppm [11] | pest or weed control at 500 ppm [4] | pest or weed control at 500 ppm [12]

Cc1cc2cc(C(=O)NC(C)(C)Cc3ccccc3F)cnc2n1C [Compound 103, N-(1-(2-fluorophenyl)-2-methylpropan-2-yl)-1,2-dimethyl-1H-pyrrolo[2,3-b]pyridine-5-carboxamide]
≥ 70%: inhibition of growth at 300 ppm [5] | inhibition of growth at 300 ppm [6] | pest or weed control at 500 ppm [2] | pest or weed control at 500 ppm [12]

Cc1ccccc1C(=O)OCC(C)(C)NC(=O)c1cnc2c(c1)CCCC2 [Compound 151, 2-methyl-2-(5,6,7,8-tetrahydroquinoline-3-carboxamido)propyl 2-methylbenzoate]
≥ 70%: inhibition of growth at 300 ppm [6] | pest or weed control at 500 ppm [3] | pest or weed control at 500 ppm [4] | pest or weed control at 500 ppm [12]

CC(C)(Cc1ccccc1)NC(=O)c1cnc2ccsc2c1 [Compound 30, N-(2-methyl-1-phenylpropan-2-yl)thieno[3,2-b] pyridine-6-carboxamide]
≥ 70%: inhibition of growth at 300 ppm [11] | inhibition of growth at 300 ppm [1] | pest or weed control at 500 ppm [3] | pest or weed control at 500 ppm [4]

Cn1ccc2cc(C(=O)NC(C)(C)Cc3cccc(F)c3)cnc21 [Compound 21, N-(1-(3-fluorophenyl)-2-methylpropan-2-yl)-1-methyl-1H-pyrrolo[2,3-b]pyridine-5-carboxamide]
≥ 70%: inhibition of growth at 300 ppm [11] | inhibition of growth at 300 ppm [5] | pest or weed control at 500 ppm [4] | pest or weed control at 500 ppm [12]

C=C(C)CC(C)(COc1ccccc1F)NC(=O)c1cnc2c(ccn2C)c1 (stereo not drawn) [Compound 155, N-(1-(2-fluorophenoxy)-2,4-dimethylpent-4-en-2-yl)-1-methyl-1H-pyrrolo[2,3-b]pyridine-5-carboxamide]
≥ 70%: inhibition of growth at 300 ppm [5] | inhibition of growth at 300 ppm [6] | inhibition of growth at 300 ppm [7] | pest or weed control at 500 ppm [2] | pest or weed control at 500 ppm [12]

CC(C)CC(C)(Cc1ccccc1)NC(=O)c1cnc2c(c1)c(Br)cn2C (stereo not drawn) [Compound 51, 3-bromo-N-(2,4-dimethyl-1-phenylpentan-2-yl)-1-methyl-1H-pyrrolo[2,3-b]pyridine-5-carboxamide]
≥ 70%: inhibition of growth at 300 ppm [11] | pest or weed control at 500 ppm [4] | pest or weed control at 500 ppm [12]

CC(c1ccccc1F)C(C)(C)NC(=O)c1cnc2c(ccn2C)c1 (stereo not drawn) [Compound 3, N-(3-(2-fluorophenyl)-2-methylbutan-2-yl)-1-methyl-1H-pyrrolo[2,3-b]pyridine-5-carboxamide]
≥ 70%: inhibition of growth at 300 ppm [11] | inhibition of growth at 300 ppm [5] | pest or weed control at 500 ppm [4] | pest or weed control at 500 ppm [8]

CC(C)CC(C)(Cc1ccccc1)NC(=O)c1cnc2cc[nH]c2c1 (stereo not drawn) [Compound 73, N-(2,4-dimethyl-1-phenylpentan-2-yl)-1H-pyrrolo[3,2-b]pyridine-6-carboxamide]
≥ 70%: inhibition of growth at 300 ppm [9] | inhibition of growth at 300 ppm [5] | inhibition of growth at 300 ppm [1] | inhibition of growth at 300 ppm [6] | inhibition of growth at 300 ppm [7] | inhibition of growth at 300 ppm [10] | pest or weed control at 500 ppm [3] | pest or weed control at 500 ppm [4] | pest or weed control at 500 ppm [8]

Cn1cc(Cl)c2cc(C(=O)NC(C)(C)COC(=O)c3cccc(F)c3)cnc21 [Compound 153, 2-(3-chloro-1-methyl-1H-pyrrolo[2,3-b]pyridine-5-carboxamido)-2-methylpropyl 3-fluorobenzoate]
≥ 70%: inhibition of growth at 300 ppm [6] | pest or weed control at 500 ppm [3] | pest or weed control at 500 ppm [4]

Cn1ccc2cc(C(=O)NC(C)(C)Cc3ccc(OC(F)(F)F)cc3)cnc21 [Compound 19, 1-methyl-N-(2-methyl-1-(4-(trifluoromethoxy)phenyl)propan-2-yl)-1H-pyrrolo[2,3-b]pyridine-5-carboxamide]
≥ 70%: pest or weed control at 500 ppm [3] | pest or weed control at 500 ppm [4] | pest or weed control at 500 ppm [12]

Cc1cc2cc(C(=O)NC(C)(C)Cc3ccc(Cl)cc3)cnc2n1C [Compound 101, N-(1-(4-chlorophenyl)-2-methylpropan-2-yl)-1,2-dimethyl-1H-pyrrolo[2,3-b]pyridine-5-carboxamide]
≥ 70%: inhibition of growth at 300 ppm [9] | inhibition of growth at 300 ppm [5] | inhibition of growth at 300 ppm [6] | inhibition of growth at 300 ppm [10] | pest or weed control at 500 ppm [2] | pest or weed control at 500 ppm [12]

CCC(O)(CC)C(NC(=O)c1cnc2ccsc2c1)c1ccc(F)cc1 (stereo not drawn) [Compound 132, N-(2-ethyl-1-(4-fluorophenyl)-2-hydroxybutyl)thieno [3,2-b]pyridine-6-carboxamide]
≥ 70%: inhibition of growth at 300 ppm [7] | pest or weed control at 500 ppm [4] | pest or weed control at 500 ppm [12]

Cn1cc(Cl)c2cc(C(=O)NC(C)(C)Cc3ccccc3F)cnc21 [Compound 59, 3-chloro-N-(1-(2-fluorophenyl)-2-methylpropan-2-yl)-1-methyl-1H-pyrrolo[2,3-b]pyridine-5-carboxamide]
≥ 70%: inhibition of growth at 300 ppm [11] | pest or weed control at 500 ppm [4] | pest or weed control at 500 ppm [12]
